The RepoRT retention time repository

Assay: HILIC, HILICON iHILIC-(P) Classic, HILIC, PEEK, 50 × 2.1 mm, 5 µm, 45 °C, 0.12 mL/min, estimated dead time 0.92 min; A: water + 20 mM ammonium carbonate; B: acetonitrile; gradient (min/%B) 0/90 1/90 21/20 21.5/20 26.5/20 27.5/90 35/90
Conditions: stereoisomer not certain

Row | Structure (SMILES) | LC retention time
1 | Nc1ccn(C2OC(CO)C(O)C2O)c(=O)n1 (stereo not drawn) [Cytidine] | 5.92 min
2 | O=C(O)CC(C(=O)O)C(O)C(=O)O (stereo not drawn) [Isocitric acid] | 15.9 min
3 | Nc1nc2c(ncn2C2OC(COP(=O)(O)OP(=O)(O)OP(=O)(O)O)C(O)C2O)c(=O)[nH]1 (stereo not drawn) [GTP] | 17.1 min
4 | NC(CCC(=O)O)C(=O)O (stereo not drawn) [Glutamic acid] | 9.69 min
5 | Nc1nc2c(ncn2C2OC(CO)C(O)C2O)c(=O)[nH]1 (stereo not drawn) [Guanosine] | 6.69 min
6 | O=C(O)CC(O)(CC(=O)O)C(=O)O [Citric acid] | 16.4 min
7 | O=P(O)(O)OCC(O)CO (stereo not drawn) [Glycerol-3-phosphate] | 10.9 min
8 | Nc1ncnc2c1ncn2C1OC(COP(=O)(O)O)C(O)C1O (stereo not drawn) [AMP] | 8.49 min
9 | Nc1ncnc2c1ncn2C1OC(COP(=O)(O)OP(=O)(O)OP(=O)(O)O)C(O)C1O (stereo not drawn) [ATP] | 13.6 min
10 | Nc1ncnc2c1ncn2C1OC(CO)C(O)C1O (stereo not drawn) [Adenosine] | 3.57 min
11 | O=P(O)(O)OCC1OC(O)(COP(=O)(O)O)C(O)C1O (stereo not drawn) [Fructose-1,6-bisphosphate] | 16.3 min
12 | CC(=O)SCCNC(=O)CCNC(=O)C(O)C(C)(C)COP(=O)(O)OP(=O)(O)OCC1OC(n2cnc3c(N)ncnc32)C(O)C1OP(=O)(O)O (stereo not drawn) [Acetyl-CoA] | 8.69 min
13 | O=C(O)CCCCC1SCC2NC(=O)NC21 (stereo not drawn) [Biotin] | 3.35 min
14 | NC(CSSCC(N)C(=O)O)C(=O)O (stereo not drawn) [Cystine] | 11.6 min
15 | Nc1nc2ncc(CNc3ccc(C(=O)NC(CCC(=O)O)C(=O)O)cc3)nc2c(=O)[nH]1 (stereo not drawn) [Folic Acid] | 14.3 min
16 | NC(CCC(=O)NC(CSSCC(NC(=O)CCC(N)C(=O)O)C(=O)NCC(=O)O)C(=O)NCC(=O)O)C(=O)O (stereo not drawn) [GSSG] | 15.3 min
17 | O=C1OC(C(O)CO)C(O)=C1O (stereo not drawn) [Ascorbic Acid] | 9.37 min
18 | Nc1ccn(C2OC(COP(=O)(O)OP(=O)(O)O)C(O)C2O)c(=O)n1 (stereo not drawn) [CDP] | 13.2 min
19 | Nc1nc2c(ncn2C2OC(COP(=O)(O)OP(=O)(O)O)C(O)C2O)c(=O)[nH]1 (stereo not drawn) [GDP] | 15.2 min
20 | NC(CCC(=O)NC(CS)C(=O)NCC(=O)O)C(=O)O (stereo not drawn) [GSH] | 8.5 min
21 | NC(=O)CCC(N)C(=O)O (stereo not drawn) [Glutamine] | 8.36 min
22 | Nc1ncnc2nc[nH]c12 [Adenine] | 3.42 min
23 | Nc1ccn(C2OC(COP(=O)(O)O)C(O)C2O)c(=O)n1 (stereo not drawn) [CMP] | 10.9 min
24 | Nc1ncnc2c1ncn2C1OC(COP(=O)(O)OP(=O)(O)O)C(O)C1O (stereo not drawn) [ADP] | 12.2 min
25 | NC(=O)CC(N)C(=O)O (stereo not drawn) [Asparagine] | 10.8 min
26 | Nc1nc2c(ncn2C2OC(COP(=O)(O)O)C(O)C2O)c(=O)[nH]1 (stereo not drawn) [GMP] | 14.2 min

Further lines, results first:

Row | LC retention time | Structure (SMILES)
27 | 12.2 min | O=c1ccn(C2OC(COP(=O)(O)OP(=O)(O)O)C(O)C2O)c(=O)[nH]1 (stereo not drawn) [UDP]
28 | 14.3 min | O=c1ccn(C2OC(COP(=O)(O)OP(=O)(O)OP(=O)(O)O)C(O)C2O)c(=O)[nH]1 (stereo not drawn) [UTP]
29 | 11.8 min | O=C(O)CCC(=O)O [Succinic Acid]
30 | 9.96 min | CC(=O)NC(CC(=O)O)C(=O)O (stereo not drawn) [N-Acetylaspartic acid]
31 | 6.81 min | O=C(O)C1CCCN1 (stereo not drawn) [Proline]
32 | 6.71 min | CC(C)C(N)C(=O)O (stereo not drawn) [Valine]
33 | 13.5 min | NC(=O)c1ccc[n+](C2OC(COP(=O)(O)OP(=O)(O)OCC3OC(n4cnc5c(N)ncnc54)C(OP(=O)(O)O)C3O)C(O)C2O)c1 (stereo not drawn) [NADP]
34 | 9.33 min | NC(=O)C1=CN(C2OC(COP(=O)(O)OP(=O)(O)OCC3OC(n4cnc5c(N)ncnc54)C(O)C3O)C(O)C2O)C=CC1 (stereo not drawn) [NADH]
35 | 4.97 min | NC(Cc1ccccc1)C(=O)O (stereo not drawn) [Phenylalanine]
36 | 6.43 min | O=C(O)C1(O)CC(O)C(O)C(O)C1 (stereo not drawn) [Quinic Acid]
37 | 11.7 min | CC(=O)NC1C(OP(=O)(O)OP(=O)(O)OCC2OC(n3ccc(=O)[nH]c3=O)C(O)C2O)OC(CO)C(O)C1O (stereo not drawn) [UDP-GlcNAc]
38 | 2.81 min | CC(O)C(=O)O (stereo not drawn) [Lactic Acid]
39 | 18.1 min | NCCCC(N)C(=O)O (stereo not drawn) [Ornithine]
40 | 5.91 min | CSCCC(N)C(=O)O (stereo not drawn) [Methionine]
41 | 8.93 min | NC(=O)c1ccc[n+](C2OC(COP(=O)(O)OP(=O)(O)OCC3OC(n4cnc5c(N)ncnc54)C(O)C3O)C(O)C2O)c1 (stereo not drawn) [NAD]
42 | 18.8 min | NCCCCC(N)C(=O)O (stereo not drawn) [Lysine]

Row | LC retention time | Structure (SMILES)
43 | 6.18 min | NC(Cc1c[nH]c2ccccc12)C(=O)O (stereo not drawn) [Tryptophan]
44 | 13.7 min | C=C(OP(=O)(O)O)C(=O)O [PEP]
45 | 9.52 min | O=c1ccn(C2OC(COP(=O)(O)O)C(O)C2O)c(=O)[nH]1 (stereo not drawn) [UMP]
46 | 6.98 min | NC(Cc1ccc(O)cc1)C(=O)O (stereo not drawn) [Tyrosine]
47 | 9.43 min | NC(=O)c1ccc[n+](C2OC(COP(=O)([O-])O)C(O)C2O)c1 (stereo not drawn) [NMN]
48 | 11.3 min | O=C(CO)COP(=O)(O)O [Triose phosphate]
49 | 9.39 min | O=C(O)CC(=O)O [Malonic Acid]
50 | 5.45 min | CC(C)CC(N)C(=O)O (stereo not drawn) [Leucine]
51 | 13 min | Cc1ncc(C[n+]2csc(CCO)c2C)c(N)n1 [Thiamine]
52 | 5.72 min | CCC(C)C(N)C(=O)O (stereo not drawn) [Isoleucine]
53 | 8.59 min | NC(CO)C(=O)O (stereo not drawn) [Serine]
54 | 1.66 min | O=C(O)c1cccnc1 [Nicotinic acid]
55 | 13.5 min | O=C(O)C(CO)OP(=O)(O)O (stereo not drawn) [Phosphoglyceric acid A]
56 | 8.21 min | CC(O)C(N)C(=O)O (stereo not drawn) [Threonine]
57 | 13.1 min | O=C(O)CC(O)C(=O)O (stereo not drawn) [Malic Acid]
58 | 16.8 min | NC(=O)C1=CN(C2OC(COP(=O)(O)OP(=O)(O)OCC3OC(n4cnc5c(N)ncnc54)C(OP(=O)(O)O)C3O)C(O)C2O)C=CC1 (stereo not drawn) [NADPH]
